# Read-outs that look alike come from different tables or passages of the source.
# Assays:
# S. pyogenes ATCC 12344 = details: n = 2
# Protocol: (§1) A positive control of a row of just the bacteria and a negative control of only the medium were included for every plate tested.
# (§2) The compounds along with standard antibiotics were serially diluted 2-fold across the 96-well plates. […] A sample of each culture was then diluted 40-fold in fresh MH broth (in presence and absence of Tween) and incubated at 37°C for 2 to 3 h.
# [1] = cited from earlier work
# Source text: Other assay additives can affect MIC values. […] This in turn translates into reduced ...
# MRSA ATCC 43300 = test system: MRSA ATCC 43300
# Protocol: as §1, §2
# For experiments in the presence of surfactant, 2% beractant (25 mg/ml) was added to the mid-log-phase cultures and mixed gently and added to all the 96-well plates. For experiments in the presence of serum, a mixture of 50% of human serum along with 50% MHB was prepared and used throughout the experiment.
# MRSA = details: literature value; cited from earlier work
# Source text: TABLE 1 Literature MIC values for tested antibiotics | column: MIC (µg/ml) (reference[s]) / MRSA
# S. pneumoniae ATCC 33440 = experiment: microbe, parasite or virus in culture; details: n = 2
# Protocol: as §1, §2
# [2] = test system: S. pneumoniae ATCC 700677 (MDR); experiment: microbe, parasite or virus in culture; details: n = 2
# Protocol: as §1, §2
# E. faecalis ATCC 29212 = experiment: microbe, parasite or virus in culture; details: n = 2
# Protocol: as §1, §2
# [3] = test system: MSSA S. aureus ATCC 25923; experiment: microbe, parasite or virus in culture; details: n = 2
# Protocol: as §1, §2
# [4] = test system: S. aureus GISA NRS 2; ATCC 700698; experiment: microbe, parasite or virus in culture; details: n = 2
# Protocol: as §1, §2
# [5] = literature values, reference given; cited from earlier work
# Source text: Other assay additives can affect MIC values. […] Plasma protein binding has been implicated as a major factor limiting the active free concentration of many clinically important antibiotics ([37][–][42]).
compound,measurement,setting,value
"CCCCCCCCCCNCCN[C@@]1(C)C[C@H](O[C@H]2[C@H](Oc3c4cc5cc3Oc3ccc(cc3Cl)[C@@H](O)[C@@H](NC(=O)[C@@H](CC(C)C)NC)C(=O)N[C@@H](CC(N)=O)C(=O)N[C@H]5C(=O)N[C@H]3C(=O)N[C@H](C(=O)N[C@H](C(=O)O)c5cc(O)c(CNCP(=O)(O)O)c(O)c5-c5cc3ccc5O)[C@H](O)c3ccc(c(Cl)c3)O4)O[C@H](CO)[C@@H](O)[C@@H]2O)O[C@@H](C)[C@H]1O [Telavancin, telavancin]",MIC,"S. pyogenes ATCC 12344; Corning NBS, MHB +T80",0.003 to 0.015 µg/mL
same,MIC,"S. pyogenes ATCC 12344; Corning NBS, MHB -T80",≤ 0.003 µg/mL
same,MIC,"S. pyogenes ATCC 12344; Corning PS, MHB -T80",≤ 0.003 µg/mL
same,MIC,"S. pyogenes ATCC 12344; Corning TC, MHB +T80",0.007 to 0.015 µg/mL
same,MIC,"S. pyogenes ATCC 12344; Corning TC, MHB -T80",≤ 0.003 µg/mL
same,half-life,[1],8 h
same,MIC,"MRSA ATCC 43300; Corning NBS, MH + 2% LHB, 2% LS, n = 2",0.125 µg/mL
same,MIC,"MRSA ATCC 43300; Corning NBS, MH + 2% LHB, 50% HS, n = 2",0.25 µg/mL
same,MIC,"MRSA ATCC 43300; Corning NBS, MH + 2% LHB, no additive, n = 2",0.06 to 0.125 µg/mL
same,MIC,"MRSA ATCC 43300; Corning NBS, MH + T80, 2% LS, n = 2",0.06 to 0.125 µg/mL
same,MIC,"MRSA ATCC 43300; Corning NBS, MH + T80, 50% HS, n = 2",0.25 µg/mL
same,MIC,"MRSA ATCC 43300; Corning NBS, MH, 2% LS, n = 2",0.125 µg/mL
same,MIC,"MRSA ATCC 43300; Corning NBS, MH, 50% HS, n = 2",0.25 µg/mL
same,MIC,"MRSA ATCC 43300; Corning PS, MH + 2% LHB, 2% LS, n = 2",0.125 µg/mL
same,MIC,"MRSA ATCC 43300; Corning PS, MH + 2% LHB, 50% HS, n = 2",0.125 to 0.25 µg/mL
same,MIC,"MRSA ATCC 43300; Corning PS, MH + 2% LHB, no additive, n = 2",0.06 µg/mL
same,MIC,"MRSA ATCC 43300; Corning PS, MH + T80, 2% LS, n = 2",0.06 to 0.25 µg/mL
same,MIC,"MRSA ATCC 43300; Corning PS, MH + T80, 50% HS, n = 2",0.25 µg/mL
same,MIC,"MRSA ATCC 43300; Corning PS, MH, 2% LS, n = 2",0.03 to 0.125 µg/mL
same,MIC,"MRSA ATCC 43300; Corning PS, MH, 50% HS, n = 2",0.125 to 0.25 µg/mL
same,MIC,"MRSA ATCC 43300; Corning TC, MH + 2% LHB, 2% LS, n = 2",0.25 to 1 µg/mL
same,MIC,"MRSA ATCC 43300; Corning TC, MH + 2% LHB, 50% HS, n = 2",2 to 8 µg/mL
same,MIC,"MRSA ATCC 43300; Corning TC, MH + 2% LHB, no additive, n = 2",0.125 µg/mL
same,MIC,"MRSA ATCC 43300; Corning TC, MH + T80, 2% LS, n = 2",0.125 to 0.25 µg/mL
same,MIC,"MRSA ATCC 43300; Corning TC, MH + T80, 50% HS, n = 2",0.25 to 1 µg/mL
same,MIC,"MRSA ATCC 43300; Corning TC, MH, 2% LS, n = 2",0.25 to 0.5 µg/mL
same,MIC,"MRSA ATCC 43300; Corning TC, MH, 50% HS, n = 2",0.5 to 1 µg/mL
same,MIC,"MRSA ATCC 43300; Corning flat NBS plate, MHB +0.002% T80, no further additive, n = 2",0.125 µg/mL
same,MIC,"MRSA ATCC 43300; Corning flat NBS plate, MHB −T80, no additive, n = 2",0.03 to 0.06 µg/mL
same,MIC,"MRSA ATCC 43300; Corning flat PS plate, MHB +0.002% T80, no further additive, n = 2",0.03 to 0.06 µg/mL
same,MIC,"MRSA ATCC 43300; Corning flat PS plate, MHB −T80, no additive, n = 2",0.06 µg/mL
same,MIC,"MRSA ATCC 43300; Corning flat TC plate, MHB +0.002% T80, no further additive, n = 2",0.125 to 0.25 µg/mL
same,MIC,"MRSA ATCC 43300; Corning flat TC plate, MHB −T80, no additive, n = 2",1 µg/mL
same,MIC,"MRSA ATCC 43300; Nunc U TC plate, MHB +0.002% T80, n = 2",0.25 to 0.5 µg/mL
same,MIC,"MRSA ATCC 43300; Nunc U TC plate, MHB −T80, n = 2",0.5 µg/mL
same,MIC,"MRSA ATCC 43300; Nunc flat PS plate, MHB +0.002% T80, n = 2",0.06 µg/mL
same,MIC,"MRSA ATCC 43300; Nunc flat PS plate, MHB −T80, n = 2",0.06 µg/mL
same,MIC,"MRSA ATCC 43300; Nunc flat TC plate, MHB +0.002% T80, n = 2",0.125 to 0.25 µg/mL
same,MIC,"MRSA ATCC 43300; Nunc flat TC plate, MHB −T80, n = 2",0.5 to 1 µg/mL
same,MIC,MRSA ATCC 43300; TC plates without additive,0.5 to 1 µg/mL
same,MIC,"MRSA ATCC 43300; Trek PS, MH + 2% LHB, 2% LS, n = 2",0.06 to 0.25 µg/mL
same,MIC,"MRSA ATCC 43300; Trek PS, MH + 2% LHB, 50% HS, n = 2",0.06 to 0.125 µg/mL
same,MIC,"MRSA ATCC 43300; Trek PS, MH + 2% LHB, no additive, n = 2",0.015 µg/mL
same,MIC,"MRSA ATCC 43300; Trek PS, MH + T80, 2% LS, n = 2",0.06 µg/mL
same,MIC,"MRSA ATCC 43300; Trek PS, MH + T80, 50% HS, n = 2",0.125 to 0.25 µg/mL
same,MIC,"MRSA ATCC 43300; Trek PS, MH, 2% LS, n = 2",0.03 to 0.06 µg/mL
same,MIC,"MRSA ATCC 43300; Trek PS, MH, 50% HS, n = 2",0.125 µg/mL
same,MIC,"MRSA ATCC 43300; Trek flat PS plate, MHB +0.002% T80, no further additive, n = 2",0.03 to 0.06 µg/mL
same,MIC,"MRSA ATCC 43300; Trek flat PS plate, MHB −T80, no additive, n = 2",0.03 to 0.06 µg/mL
same,MIC,"MRSA ATCC 43300; all 3 untreated PS plates, with and without added T80",around 0.06 µg/ml
same,MIC (literature),MRSA,"0.06 ([66], [67]) µg/ml"
same,MIC,"S. pneumoniae ATCC 33440; Corning NBS, MHB +T80",0.125 µg/mL
same,MIC,"S. pneumoniae ATCC 33440; Corning NBS, MHB -T80",0.125 µg/mL
same,MIC,"S. pneumoniae ATCC 33440; Corning PS, MHB +T80",0.125 µg/mL
same,MIC,"S. pneumoniae ATCC 33440; Corning PS, MHB -T80",0.5 to 4 µg/mL
same,MIC,"S. pneumoniae ATCC 33440; Corning TC, MHB +T80",0.25 µg/mL
same,MIC,"S. pneumoniae ATCC 33440; Corning TC, MHB -T80",1 to 2 µg/mL
same,MIC,"[2]; Corning NBS, MHB +T80",0.06 to 0.125 µg/mL
same,MIC,"[2]; Corning NBS, MHB -T80",0.03 to 0.06 µg/mL
same,MIC,"[2]; Corning PS, MHB +T80",0.06 to 0.125 µg/mL
same,MIC,"[2]; Corning PS, MHB -T80",0.06 µg/mL
same,MIC,"[2]; Corning TC, MHB +T80",0.125 µg/mL
same,MIC,"[2]; Corning TC, MHB -T80",0.5 to 2 µg/mL
same,MIC,"E. faecalis ATCC 29212; Corning NBS, MHB +T80",0.06 µg/mL
same,MIC,"E. faecalis ATCC 29212; Corning NBS, MHB -T80",0.06 to 0.125 µg/mL
same,MIC,"E. faecalis ATCC 29212; Corning PS, MHB +T80",0.03 to 0.06 µg/mL
same,MIC,"E. faecalis ATCC 29212; Corning PS, MHB -T80",0.125 to 0.5 µg/mL
same,MIC,"E. faecalis ATCC 29212; Corning TC, MHB +T80",0.06 to 0.125 µg/mL
same,MIC,"E. faecalis ATCC 29212; Corning TC, MHB -T80",0.5 to 4 µg/mL
same,MIC,"[3]; Corning NBS, MHB +T80",0.125 to 0.25 µg/mL
same,MIC,"[3]; Corning NBS, MHB -T80",0.06 to 0.125 µg/mL
same,MIC,"[3]; Corning PS, MHB +T80",0.25 to 0.5 µg/mL
same,MIC,"[3]; Corning PS, MHB -T80",0.25 to 2 µg/mL
same,MIC,"[3]; Corning TC, MHB +T80",0.25 µg/mL
same,MIC,"[3]; Corning TC, MHB -T80",0.5 to 2 µg/mL
same,MIC,"[4]; Corning NBS, MHB +T80",0.125 µg/mL
same,MIC,"[4]; Corning NBS, MHB -T80",0.06 to 0.125 µg/mL
same,MIC,"[4]; Corning PS, MHB +T80",0.125 µg/mL
same,MIC,"[4]; Corning PS, MHB -T80",0.125 to 0.5 µg/mL
same,MIC,"[4]; Corning TC, MHB +T80",0.25 µg/mL
same,MIC,"[4]; Corning TC, MHB -T80",1 to 8 µg/mL
same,protein binding,[5],90 to 93%

# Source: PMC6325200, “Effects of Microplate Type and Broth Additives on Microdilution MIC Susceptibility Assays” (Antimicrobial Agents and Chemotherapy, 2018)
